Our source for the IC50, inhibition and Activity values is ChEMBL document CHEMBL3400128, “Design, synthesis and biological evaluation of functionalized phthalimides: a new class of antimalarials and inhibitors of falcipain-2, a major hemoglobinase of malaria parasite” (Bioorg Med Chem, 2015).

The subject of series [1] is Plasmodium falciparum. Description: Antimalarial activity against chloroquine-sensitive Plasmodium falciparum 3D7 infected in human erythrocyte assessed as parasite viability after 48 hrs by [3H]hypoxanthine incorporation based liquid scintillation counting analysis. The format is functional, organism-based.
The subject of series [2] is Plasmodium falciparum. The series is described as follows: Antimicrobial activity against chloroquine-sensitive Plasmodium falciparum 3D7 infected in human erythrocyte assessed as parasite viability at 6.25 to 25 ng/ml after 42 hrs by [3H]hypoxanthine incorporation based liquid scintillation counting analysis. The format is functional, organism-based.
Series [3] concerns the target T1, Falcipain 2 (Plasmodium falciparum) (UniProt Q9N6S8).
T1 sequence (whole entry): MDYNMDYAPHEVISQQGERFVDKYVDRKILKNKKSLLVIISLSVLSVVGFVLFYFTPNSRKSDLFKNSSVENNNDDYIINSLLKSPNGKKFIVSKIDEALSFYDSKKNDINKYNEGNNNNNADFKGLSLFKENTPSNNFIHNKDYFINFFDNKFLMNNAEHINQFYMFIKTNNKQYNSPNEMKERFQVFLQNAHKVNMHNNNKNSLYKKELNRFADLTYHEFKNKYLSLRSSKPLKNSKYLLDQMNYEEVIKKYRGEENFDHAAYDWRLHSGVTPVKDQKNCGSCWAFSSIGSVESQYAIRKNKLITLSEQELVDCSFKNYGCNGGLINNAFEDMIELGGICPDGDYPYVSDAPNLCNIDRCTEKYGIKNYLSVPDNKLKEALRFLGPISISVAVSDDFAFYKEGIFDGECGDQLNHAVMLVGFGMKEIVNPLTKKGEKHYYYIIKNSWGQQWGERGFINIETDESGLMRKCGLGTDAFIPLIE
The series is described as follows: Inhibition of Plasmodium falciparum Falcipain 2 at 5 nM by hemoglobin hydrolysis assay.

Series [4] concerns the target T1, Falcipain 2 (Plasmodium falciparum). The series is described as follows: Inhibition of Plasmodium falciparum Falcipain 2 at 500 nM by hemoglobin hydrolysis assay.
For series [5] the target is unchanged. The series is described as follows: Inhibition of Plasmodium falciparum Falcipain 2 using Z-Leu-Arg-AMC substrate assessed as fluorogenic substrate hydrolysis.
In series [6] the test system is Plasmodium falciparum. Description: Antimicrobial activity against chloroquine-sensitive Plasmodium falciparum 3D7 infected in human erythrocyte assessed as parasite viability after 42 hrs by [3H]hypoxanthine incorporation based liquid scintillation counting analysis in presence of 12.5 ng/ml. The format is functional, organism-based.
Series [7] deals with Plasmodium falciparum. Description: Antimicrobial activity against blood stage chloroquine-sensitive Plasmodium falciparum 3D7 infected in human erythrocyte assessed as inhibition of invasion event of merozoites after 6 hrs by Giemsa staining based light microscopy. The format is functional, organism-based.
For series [8], the system named is Plasmodium falciparum. The series is described as follows: Antimicrobial activity against chloroquine-sensitive Plasmodium falciparum 3D7 infected in human erythrocyte assessed as parasite viability after 42 hrs by [3H]hypoxanthine incorporation based liquid scintillation counting analysis in presence of 25 ng/ml. The format is functional, organism-based.
In series [9] the test system is Plasmodium falciparum. Description: Antimicrobial activity against ring stage trophozoite chloroquine-sensitive Plasmodium falciparum 3D7 infected in human erythrocyte assessed as abnormal morphologies at 27.64 uM after 16 hrs by Giemsa staining based light microscopy. The format is functional, organism-based.
Series [10] concerns Plasmodium falciparum. The series is described as follows: Antimalarial activity against chloroquine-sensitive Plasmodium falciparum 3D7 infected in human erythrocyte assessed as parasite viability after 90 hrs by [3H]hypoxanthine incorporation based liquid scintillation counting analysis. The format is functional, organism-based.
Series [11] concerns Plasmodium falciparum. The series is described as follows: Antimalarial activity against chloroquine-sensitive Plasmodium falciparum 3D7 infected in human erythrocyte assessed as parasite viability after 60 hrs by [3H]hypoxanthine incorporation based liquid scintillation counting analysis. The format is functional, organism-based.
The subject of series [12] is Plasmodium falciparum. The series is described as follows: Antimicrobial activity against ring stage trophozoite chloroquine-sensitive Plasmodium falciparum 3D7 infected in human erythrocyte assessed as abnormal morphologies at 55.28 uM after 16 hrs by Giemsa staining based light microscopy. The format is functional, organism-based.
The subject of series [13] is Plasmodium falciparum. The series is described as follows: Antimicrobial activity against chloroquine-sensitive Plasmodium falciparum 3D7 infected in human erythrocyte assessed as parasite viability after 42 hrs by [3H]hypoxanthine incorporation based liquid scintillation counting analysis in presence of 6.25 ng/ml. The format is functional, organism-based.
Series [14] in a line: Toxicity in human erythrocytes assessed as hemolytic activity up to 50 ug/ml after 42 hrs by spectrophotometric analysis. The format is cell-based. The following applies: erythrocyte.
Series [15] has as its system Plasmodium falciparum. Description: Antimicrobial activity against chloroquine-resistant Plasmodium falciparum 7G8 infected in human erythrocyte assessed as parasite viability after 48 hrs by [3H]hypoxanthine incorporation based liquid scintillation counting analysis. The format is functional.
The subject of series [16] is Plasmodium falciparum. Description: Antimicrobial activity against blood stage chloroquine-sensitive Plasmodium falciparum 3D7 infected in human erythrocyte assessed as abnormal morphologies at 55.28 uM after 6 hrs by Giemsa staining based light microscopy. The format is functional, organism-based.
The test system of series [17] is Plasmodium falciparum. Description: Antimicrobial activity against blood stage chloroquine-sensitive Plasmodium falciparum 3D7 infected in human erythrocyte assessed as abnormal morphologies at 27.64 uM after 6 hrs by Giemsa staining based light microscopy. The format is functional, organism-based.
The subject of series [18] is Plasmodium falciparum. The series is described as follows: Antimicrobial activity against blood stage chloroquine-sensitive Plasmodium falciparum 3D7 infected in human erythrocyte assessed as abnormal morphologies at 43.68 uM after 6 hrs by Giemsa staining based light microscopy. The format is functional, organism-based.
Series [19] deals with Plasmodium falciparum. The series is described as follows: Antimicrobial activity against blood stage chloroquine-sensitive Plasmodium falciparum 3D7 infected in human erythrocyte assessed as abnormal morphologies at 21.8 uM after 6 hrs by Giemsa staining based light microscopy. The format is functional, organism-based.
For series [20], the system named is Plasmodium falciparum. The series is described as follows: Antimicrobial activity against ring stage trophozoite chloroquine-sensitive Plasmodium falciparum 3D7 infected in human erythrocyte assessed as abnormal morphologies at 21.8 uM after 16 hrs by Giemsa staining based light microscopy. The format is functional, organism-based.
The test system of series [21] is Plasmodium falciparum. Description: Antimicrobial activity against ring stage trophozoite chloroquine-sensitive Plasmodium falciparum 3D7 infected in human erythrocyte assessed as abnormal morphologies at 43.68 uM after 16 hrs by Giemsa staining based light microscopy. The format is functional, organism-based.

Where “and” joins values, the source holds several entries; their conditions need not be identical. Equal values may be shown once. Calls of active or inactive are those of the source. The calls are words filed in the database; no cut-off is given here.

Consider `C[C@@H]1CC[C@H]2[C@@H](C)C(=O)O[C@@H]3O[C@@]4(C)CC[C@@H]1[C@]32OO4` [ARTEMISININ], for which the IC50 (as a rule, the midpoint of a concentration-inhibition curve) in the series on Plasmodium falciparum [1] is 0.045 µg/mL and 159 nM. The inhibition entry with Plasmodium falciparum [2] is “inactive”.

With `O=C([C@H](Cc1ccccc1)N1C(=O)c2ccccc2C1=O)N1CCCC1`, the inhibition entry in series [3], in [4] and in series [5] was “Active” throughout. Also, the IC50 in the series with Plasmodium falciparum [1] was 31.5 µg/mL and 87.6 µM.

Turning to `CC(C)[C@@H](C(=O)N1CCCC1)N1C(=O)c2ccccc2C1=O`, in the series with Plasmodium falciparum [1], the IC50 was 42.5 µg/mL and 142 µM.

For `CC(C)C[C@@H](C(=O)N1CCCC1)N1C(=O)c2ccccc2C1=O`, the IC50 in the series with Plasmodium falciparum [1] was 74.2 µg/mL and 236 µM.

Regarding `CC[C@H](C)[C@@H](C(=O)N1CCC(Cc2ccccc2)CC1)N1C(=O)c2ccccc2C1=O`, the IC50 in the series on Plasmodium falciparum [1] is 22.5 µg/mL and 53.8 µM.

In the case of `CC(C)C[C@@H](C(=O)N1CCN(C(=O)[C@H](CC(C)C)N2C(=O)c3ccccc3C2=O)CC1)N1C(=O)c2ccccc2C1=O`, the IC50 with Plasmodium falciparum [1] was 61 µg/mL and 203 µM.

Take `CC[C@@H](C)[C@@H](C(=O)N1CCCC1)N1C(=O)c2ccccc2C1=O`: the IC50 in the series on Plasmodium falciparum [1] is 46 µg/mL and 146 µM.

As for `O=C([C@H](Cc1ccccc1)N1C(=O)c2ccccc2C1=O)N1CCCCC1`, in the series with Plasmodium falciparum [1], the IC50 is 13 µg/mL and 36 µM.

Regarding `CC(C)[C@@H](C(=O)N1CCOCC1)N1C(=O)c2ccccc2C1=O`, the IC50 with Plasmodium falciparum [1] is 65 µg/mL and 206 µM.

In the case of `CC[C@@H](C)[C@@H](C(=O)N1CCN(C(=O)[C@H]([C@H](C)CC)N2C(=O)c3ccccc3C2=O)CC1)N1C(=O)c2ccccc2C1=O`, the IC50 with Plasmodium falciparum [6] is 1.92 µM; in the series on Plasmodium falciparum [8] it was 1.39 µM; in the series with Plasmodium falciparum [1], 3.42 µg/mL and 5.97 µM; in the series with Plasmodium falciparum [10], 1.1 µM; in the series on Plasmodium falciparum [11], 2 µM; in the series on Plasmodium falciparum [13], 2.44 µM. For the same compound, the IC50 in the series on Plasmodium falciparum [15] was determined as 7.21 µM. The inhibition entry in the series on Plasmodium falciparum [7] is “Dose-dependent effect”. Further, the result in the series with Plasmodium falciparum [9], with Plasmodium falciparum [12], in the series with Plasmodium falciparum [16] and in the series with Plasmodium falciparum [17] was Active. Moreover, the Activity result in series [14] is reported as “Non-toxic”.

On to `O=C([C@H](Cc1ccccc1)N1C(=O)c2ccccc2C1=O)N1CCC(Cc2ccccc2)CC1`, for which the inhibition entry with Plasmodium falciparum [7] was “Dose-dependent effect”. In addition, the result in the series on Plasmodium falciparum [18], in the series on Plasmodium falciparum [19], in the series with Plasmodium falciparum [20] and with Plasmodium falciparum [21] was Active. Besides, the IC50 was 5.5 µg/mL and 12.2 µM in the series with Plasmodium falciparum [1]; 3.8 µM with Plasmodium falciparum [10]; 5 µM in the series on Plasmodium falciparum [11]; 13.3 µM with Plasmodium falciparum [15]. The Activity entry in [14] was “Non-toxic”.

Regarding `O=C([C@H](Cc1ccccc1)N1C(=O)c2ccccc2C1=O)N1CCN(C(=O)[C@H](Cc2ccccc2)N2C(=O)c3ccccc3C2=O)CC1`, in the series on Plasmodium falciparum [1], the IC50 was 33.8 µg/mL and 52.7 µM. In addition, in series [5], the inhibition result is “Active”.

For the compound `CC(C)[C@@H](C(=O)N1CCC(Cc2ccccc2)CC1)N1C(=O)c2ccccc2C1=O`, the IC50 with Plasmodium falciparum [1] is 19.5 µg/mL and 48.2 µM.

`CC(C)[C@@H](C(=O)N1CCCCC1)N1C(=O)c2ccccc2C1=O`: the IC50 in the series on Plasmodium falciparum [1] is 41 µg/mL and 130 µM.

As to `CC(C)[C@@H](C(=O)N1CCN(C(=O)[C@H](C(C)C)N2C(=O)c3ccccc3C2=O)CC1)N1C(=O)c2ccccc2C1=O`, the IC50 in the series with Plasmodium falciparum [1] is 9.2 µg/mL and 16.9 µM.

Consider `CC[C@@H](C)[C@@H](C(=O)N1CCCCC1)N1C(=O)c2ccccc2C1=O`, for which the IC50 in the series with Plasmodium falciparum [1] was 35 µg/mL and 107 µM.

Take `O=C([C@H](Cc1ccccc1)N1C(=O)c2ccccc2C1=O)N1CCOCC1`: the inhibition entry in series [3], in series [4] and in series [5] was “Active” in each case. In the series on Plasmodium falciparum [1], the IC50 is 18 µg/mL and 49.4 µM.

As to `CC(C)C[C@@H](C(=O)N1CCCCC1)N1C(=O)c2ccccc2C1=O`, the IC50 in the series with Plasmodium falciparum [1] is 71.5 µg/mL and 218 µM.

As to `CC(C)C[C@@H](C(=O)N1CCOCC1)N1C(=O)c2ccccc2C1=O`, in the series with Plasmodium falciparum [1], the IC50 is 46 µg/mL and 139 µM.

As to `CC(C)C[C@@H](C(=O)N1CCC(Cc2ccccc2)CC1)N1C(=O)c2ccccc2C1=O`, in the series with Plasmodium falciparum [1], the IC50 was 18.5 µg/mL and 44.2 µM.

For the compound `CC[C@@H](C)[C@@H](C(=O)N1CCOCC1)N1C(=O)c2ccccc2C1=O`, the IC50 in the series with Plasmodium falciparum [1] was 20 µg/mL and 60.6 µM.
